One data set deals with MCF-7 cells. Briefly: MTT cytotoxicity assay. The format is cell-based. The conditions noted are these: FIG. 3A. As for the experimental part:
Cells were seeded in 96 well-plates (Corning, 3599) with 10,000 cells/well. […] The cellular media was replaced with media of the appropriate concentration of materials and incubated for a further 24 hours. MTT reagent was then added in the culture medium, followed by incubation at 37° C. for 3 h and the resulting purple crystal solubilized in DMSO. The absorbance was measured on a microplate reader (SynergyMx) at 590 nm, with the measurements performed in at least triplicate.
In general terms: Formazan colour is commonly taken as a measure of viable cells.

The test system of the next data set is NIS. Briefly: NIS expression by flow cytometry. It counts as cell-based. The settings on record: MCF-7 cells, tRA 1 μM. On the procedure: In addition to MCF-7, MDA-MB-231 cells, which have a low expression of NIS, were analyzed as a comparison.
A general note: A flow cytometer gives signals particle by particle.

As for `I` [iodide], the toxicity of iodide result with MCF-7 cells is on record as “little toxicity”.

On to `CC1=C(/C=C/C(C)=C/C=C/C(C)=C/C(=O)O)C(C)(C)CCC1` [tRA, Trans retinoic acid], for which the NIS expression result in the data set with NIS is listed as “induced NIS expression”.

These data come from patent US20250135050A1, “IODIDE NANOPARTICLES AND COMPOSITIONS OF METHODS OF USE THEREOF” (University of Georgia Research Foundation, Inc., priority 2021, published 2025).
